Data: PubChem BioAssay AID1963853 (Molecular Pharmacology Branch, DTP, NCI, 2024)

Test system: 266295-075-R-J1-PDC spheroid viability
Test: Anticancer human tumor 266295-075-R-J1-PDC patient-derived head and neck squamous carcinoma cell line growth inhibition [POLQ]
Settings: spheroids with HUVEC and MSC; for IC50: curve of first compound; for viability, T/C: stronger effect = lower value
How it was run: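 Complex spheroid viability model combining PDC tumour cells with endothelial (HUVEC) and MSC stromal cells. Novobiocin, ART-558 or RP6685 were tested singly and in combination with standard and investigational anticancer drugs. Each was titrated in half-log steps from near clinical Cmax, or from 10 microM where Cmax was unknown.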

[1] = second compound 0.0316 µM, first compound 0.0316 µM
[2] = second compound 0.0316 µM, first compound 0.1 µM
[3] = second compound 0.0316 µM, first compound 0.316 µM
[4] = second compound 0.0316 µM, first compound 1 µM
[5] = second compound 0.0316 µM, first compound 3.16 µM
[6] = second compound 0.0316 µM, first compound 10 µM
[7] = second compound 0.1 µM, first compound 0.0316 µM
[8] = second compound 0.1 µM, first compound 0.1 µM
[9] = second compound 0.1 µM, first compound 0.316 µM
[10] = second compound 0.1 µM, first compound 1 µM
[11] = second compound 0.1 µM, first compound 3.16 µM
[12] = second compound 0.1 µM, first compound 10 µM
[13] = second compound 0.316 µM, first compound 0.0316 µM
[14] = second compound 0.316 µM, first compound 0.1 µM
[15] = second compound 0.316 µM, first compound 0.316 µM
[16] = second compound 0.316 µM, first compound 1 µM
[17] = second compound 0.316 µM, first compound 3.16 µM
[18] = second compound 0.316 µM, first compound 10 µM
[19] = second compound 1 µM, first compound 0.0316 µM
[20] = second compound 1 µM, first compound 0.1 µM
[21] = second compound 1 µM, first compound 0.316 µM
[22] = second compound 1 µM, first compound 1 µM
[23] = second compound 1 µM, first compound 3.16 µM
[24] = second compound 1 µM, first compound 10 µM
[25] = second compound 3.16 µM, first compound 0.0316 µM
[26] = second compound 3.16 µM, first compound 0.1 µM
[27] = second compound 3.16 µM, first compound 0.316 µM
[28] = second compound 3.16 µM, first compound 1 µM
[29] = second compound 3.16 µM, first compound 3.16 µM
[30] = second compound 3.16 µM, first compound 10 µM
[31] = second compound 10 µM, first compound 0.0316 µM
[32] = second compound 10 µM, first compound 0.1 µM
[33] = second compound 10 µM, first compound 0.316 µM
[34] = second compound 10 µM, first compound 1 µM
[35] = second compound 10 µM, first compound 3.16 µM
[36] = second compound 10 µM, first compound 10 µM
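Further: spheroids exposed to compounds for seven days before readout.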

O=c1[nH]cc(F)c(=O)[nH]1 + Cc1cccc(N(C)C(=O)C2C(O)CCN2c2nc(C)cc(C(F)(F)F)c2C#N)c1 gave an IC50 (second compound 0.0316 µM) of over 10 µM, an IC50 (second compound 0.1 µM) of over 10 µM and an IC50 (second compound 0.316 µM) of over 10 µM. The IC50 (second compound 1 µM) was over 10 µM, the IC50 (second compound 3.16 µM) was over 10 µM and the IC50 (second compound 10 µM) was over 10 µM. For the same compound, the viability, T/C [1] was 87.9%, the viability, T/C [2] was 81% and the viability, T/C [3] was 101%. The viability, T/C [4] was 92.1%, the viability, T/C [5] was 77.8% and the viability, T/C [6] was 85.1%. The viability, T/C [7] was 120%, the viability, T/C [8] was 87.6% and the viability, T/C [9] was 84.3%. It also gave a viability, T/C [10] of 99.7%, a viability, T/C [11] of 104% and a viability, T/C [12] of 83.1%. The viability, T/C [13] was 77.2%, the viability, T/C [14] was 99.8% and the viability, T/C [15] was 90.6%. The viability, T/C [16] was 92.6%, the viability, T/C [17] was 92.4% and the viability, T/C [18] was 63.5%. For the same compound, the viability, T/C [19] was 98.5%, the viability, T/C [20] was 97.9% and the viability, T/C [21] was 95.2%. It also gave a viability, T/C [22] of 97.7%, a viability, T/C [23] of 99.5% and a viability, T/C [24] of 96.9%. The viability, T/C [25] was 105%, the viability, T/C [26] was 98.9% and the viability, T/C [27] was 102%. For the same compound, the viability, T/C [28] was 136%, the viability, T/C [29] was 95.4% and the viability, T/C [30] was 73.8%. The viability, T/C [31] was 89.8%, the viability, T/C [32] was 96.8% and the viability, T/C [33] was 110%. It also gave a viability, T/C [34] of 94.3%, a viability, T/C [35] of 92.9% and a viability, T/C [36] of 71.6%.

CCc1cc2c(N3CCc4c(cc(Cn5ccnc5)cc4-c4cn(C)nc4C(F)(F)F)C3=O)ccnc2c(OC)n1 + Cc1cccc(N(C)C(=O)C2C(O)CCN2c2nc(C)cc(C(F)(F)F)c2C#N)c1 was tested, and the IC50 (second compound 0.0316 µM) was over 10 µM, the IC50 (second compound 0.1 µM) was over 10 µM and the IC50 (second compound 0.316 µM) was over 10 µM. It also gave an IC50 (second compound 1 µM) of over 10 µM, an IC50 (second compound 3.16 µM) of over 10 µM and an IC50 (second compound 10 µM) of over 10 µM. The viability, T/C [1] was 90.4%, the viability, T/C [2] was 101% and the viability, T/C [3] was 78.6%. For the same compound, the viability, T/C [4] was 115%, the viability, T/C [5] was 138% and the viability, T/C [6] was 126%. It also gave a viability, T/C [7] of 98.6%, a viability, T/C [8] of 90% and a viability, T/C [9] of 105%. The viability, T/C [10] was 99.6%, the viability, T/C [11] was 119% and the viability, T/C [12] was 124%. For the same compound, the viability, T/C [13] was 119%, the viability, T/C [14] was 102% and the viability, T/C [15] was 80.3%. For the same compound, the viability, T/C [16] was 92.8%, the viability, T/C [17] was 130% and the viability, T/C [18] was 104%. For the same compound, the viability, T/C [19] was 86.7%, the viability, T/C [20] was 105% and the viability, T/C [21] was 90.6%. It also gave a viability, T/C [22] of 110%, a viability, T/C [23] of 141% and a viability, T/C [24] of 104%. The viability, T/C [25] was 107%, the viability, T/C [26] was 82.1% and the viability, T/C [27] was 104%. It also gave a viability, T/C [28] of 103%, a viability, T/C [29] of 122% and a viability, T/C [30] of 118%. The viability, T/C [31] was 97.8%, the viability, T/C [32] was 90.6% and the viability, T/C [33] was 110%. It also gave a viability, T/C [34] of 132%, a viability, T/C [35] of 127% and a viability, T/C [36] of 144%.

In the case of Nc1ccn(C2OC(CO)C(O)C2(F)F)c(=O)n1 (stereo unspecified) + Nc1ccc(C#CCN(C(=O)Cc2ncc(C(F)(F)F)cc2C(F)(F)F)c2ccc(F)cc2)nn1, the IC50 (second compound 0.0316 µM) is reported as over 10 µM, the IC50 (second compound 0.1 µM) is reported as over 10 µM and the IC50 (second compound 0.316 µM) is reported as over 10 µM. The IC50 (second compound 1 µM) was over 10 µM, the IC50 (second compound 3.16 µM) was over 10 µM and the IC50 (second compound 10 µM) was over 10 µM. It also gave a viability, T/C [1] of 100%, a viability, T/C [2] of 106% and a viability, T/C [3] of 81.6%. It also gave a viability, T/C [4] of 77%, a viability, T/C [5] of 93.7% and a viability, T/C [6] of 85.3%. It also gave a viability, T/C [7] of 112%, a viability, T/C [8] of 98.8% and a viability, T/C [9] of 72.6%. It also gave a viability, T/C [10] of 96.5%, a viability, T/C [11] of 92.1% and a viability, T/C [12] of 80.4%. For the same compound, the viability, T/C [13] was 105%, the viability, T/C [14] was 88% and the viability, T/C [15] was 78.5%. The viability, T/C [16] was 94.8%, the viability, T/C [17] was 95.7% and the viability, T/C [18] was 82%. It also gave a viability, T/C [19] of 105%, a viability, T/C [20] of 82.9% and a viability, T/C [21] of 92%. The viability, T/C [22] was 101%, the viability, T/C [23] was 94.3% and the viability, T/C [24] was 82.5%. For the same compound, the viability, T/C [25] was 124%, the viability, T/C [26] was 94.2% and the viability, T/C [27] was 90.5%. The viability, T/C [28] was 95.1%, the viability, T/C [29] was 83.7% and the viability, T/C [30] was 75.7%. The viability, T/C [31] was 93.2%, the viability, T/C [32] was 101% and the viability, T/C [33] was 82.8%. For the same compound, the viability, T/C [34] was 89.7%, the viability, T/C [35] was 75.5% and the viability, T/C [36] was 72.2%.
